Laboratory results published in patent US6423727B1, “Certain thiol inhibitors of endothelin-converting enzyme” (Novartis AG, priority 1998, dated 2002).
Where a name gives a salt, the structure may show the parent alone.

| SMILES | melting point [°C] |
| --- | --- |
| CC(=O)N1CCCC(c2ccc(C[C@H](NC(=O)C3(NC(=O)[C@@H](S)C(C)C)CCCC3)C(=O)O)cc2)C1 (stereo in doubt) [3-[4-(1-Acetyl-piperidin-3-yl)-phenyl]-2-{[1-(2-mercapto-3-methyl-butanoylamino)-cyclopentanecarbonyl]-amino}-propionic acid] | 190 to 192 |
| CC(C)CC(S)C(=O)NC1(C(=O)NC(Cc2csc3ccccc23)C(=O)O)CCCC1 (stereo not drawn) [Example 13(e), 3-Benzo[b]thiophen-3-yl-2-{[1-(2-mercapto4-methyl-pentanoylamino)-cyclopentanecarbonyl]-amino}-propionic acid] | 135 to 137 |
| COc1ccccc1-c1ccc(C[C@H](NC(=O)C2(NC(=O)[C@@H](S)C(C)C)CCCC2)C(=O)O)cc1OC (stereo in doubt) [3-(2,2′-Dimethoxy-biphenyl-4-yl)-2-{[1-(2-mercapto-3-methyl-butanoylamino)-cyclopentanecarbonyl]-amino}-propionic acid] | 173 to 175 |
| CC(C)[C@H](S)C(=O)NC1(C(=O)N[C@@H](Cc2ccc(-c3ccc(C(F)(F)F)cc3)cc2)C(=O)O)CCCC1 (stereo in doubt) [2-{[1-(2-Mercapto-3-methylbutanoylamino)-cyclopentanecarbonyl]-amino}-3-(4′-trifluoromethyl-biphenyl-4-yl)-propionic acid] | 235 to 236 |
| CC[C@H](C)[C@H](S)C(=O)NC1(C(=O)NC(Cc2ccc(-c3cncnc3)cc2)C(=O)O)CCCC1 (stereo in doubt) [2-{[1-(2-Mercapto-3-methyl-pentanoylamino)-cyclopentanecarbonyl]-amino}-3-(4-pyrimidin-5-yl-phenyl)-propionic acid] | 206 to 208 |
| CCCC(S)C(=O)NC1(C(=O)NC(Cc2c[nH]c3ccccc23)C(=O)O)CCCC1 (stereo not drawn) [Example 13(c), 3-(1H-Indol-3-yl)-2-{[1-(2-mercapto-pentanoylamino)-cyclopentanecarbonyl]-amino}-propionic acid] | 102 to 105 |
| CC(C)[C@H](S)C(=O)NC1(C(=O)N[C@@H](Cc2ccc(-c3ccccc3)cc2)C(=O)O)CCOCC1 (stereo in doubt) [3-Biphenyl-4-yl-2-{[4-(2-mercapto-3-methyl-butanoylamino)-tetrahydro-pyran-4-carbonyl]-amino}-propionic acid] | 161 to 163 |
| CC(C)[C@H](S)C(=O)NC1(C(=O)NC(Cc2ccc(-c3ccncc3)cc2)C(=O)O)CCCC1 (stereo partly drawn) [2-{[1-(2-Mercapto-3-methyl-butanoylamino)-cyclopentanecarbonyl]-amino}-3-(4-yl-phenyl)-propionic acid] | 236 to 238 |
| COc1cc(C[C@H](NC(=O)C2(NC(=O)[C@@H](S)C(C)C)CCCC2)C(=O)O)ccc1-c1ccccc1 (stereo in doubt) [2-{[1-(2-Mercapto-3-methylbutanoylamino)-cyclopentanecarbonyl]-amino}-3-(2-methoxybiphenyl-4-yl)-propionic acid] | 121 to 123 |
| COc1cccc(-c2ccc(CC(NC(=O)C3(NC(=O)[C@@H](S)C(C)C)CCCC3)C(=O)O)cc2)c1 (stereo in doubt) [2-{[1-(2-Mercapto-3-methyl-butanoylamino)-cyclopentanecarbonyl]-amino}-3-(3′-methoxy-biphenyl-4-yl)-propionic acid] | 159 to 160 |
| CC(C)[C@H](S)C(=O)NC1(C(=O)N[C@@H](Cc2cccc(-c3ccccc3)c2)C(=O)O)CCCC1 (stereo in doubt) [3-Biphenyl-3-yl-2-{[1-(2-mercapto-3-methylbutanoylamino)-cyclopentanecarbonyl]-amino}-propionic acid] | 75 to 78 |
| CC(C)C[C@H](S)C(=O)NC1(C(=O)NC(Cc2ccc(-c3cncnc3)cc2)C(=O)O)CCCC1 (stereo in doubt) [2-{[1-(2-Mercapto-4-methyl-pentanoylamino)-cyclopentanecarbonyl]-amino}-3-(4-pyrimidin-5-yl-phenyl)-propionic acid] | 192 to 195 |
| CC[C@H](C)C(S)C(=O)NC1(C(=O)N[C@@H](Cc2ccc(-c3ccsc3)cc2)C(=O)O)CCCC1 (stereo in doubt) [2-{[1-(2-Mercapto-3-methyl-pentanoylamino)-cyclopentanecarbonyl]-amino}-3-[4-(thiophen-3-yl)-phenyl]-propionic acid] | 99 to 101 |
| CC(C)[C@H](S)C(=O)NC1(C(=O)NC(Cc2ccc(-c3csc(CO)c3)cc2)C(=O)O)CCCC1 (stereo in doubt) [3-[4-(5-Hydroxymethyl-thiophen-3-yl)-phenyl]-2-{[1-(2-mercapto-3-methyl-butanoylamino)-cyclopentanecarbonyl]-amino}-propionic acid] | 155 to 158 |
| CC(C)CC(S)C(=O)NC1(C(=O)NC(Cc2c[nH]c3ccccc23)C(=O)O)CCCC1 (stereo not drawn) [Example 13(b), 3-(1H-Indol-3-yl)-2-{[1-(2-mercapto-4-methyl-pentanoylamino)-cyclopentanecarbonyl]-amino}-propionic acid] | 116 to 118 |
| Cc1c(CC(NC(=O)C2(NC(=O)C(S)CC(C)C)CCCC2)C(=O)O)oc2c(F)c(F)c(F)c(F)c12 (stereo not drawn) [Example 13(a), 2-{[1-(2-Mercapto-4-methyl-pentanoylamino)-cyclopentanecarbonyl]-amino}-3-(4,5,6,7-tetrafluoro-3-methyl-benzofuran-2-yl)-propionic acid] | 115 to 117 |
| CC[C@@H](C)[C@H](S)C(=O)NC1(C(=O)NC(Cc2ccc(-c3cncnc3)cc2)C(=O)O)CCCC1 (stereo in doubt) (as salt: hydrochloride) [2-{[1-(2-Mercapto-3-methyl-pentanoylamino)-cyclopentanecarbonyl]-amino}-3-(4-pyrimidin-5-yl-phenyl)-propionic acid hydrochloride] | 170 to 184 |
| CC(C)[C@H](S)C(=O)NC1(C(=O)N[C@@H](CC2CCC(C3CCCCC3)CC2)C(=O)O)CCCC1 (stereo in doubt) [3-Bicyclohexyl-4-yl-2-{[1-(2-mercapto-3-methyl-butanoylamino)-cyclopentanecarbonyl]-amino}-propionic acid] | 209 to 210 |
| CC(C)C[C@H](S)C(=O)NC1(C(=O)N[C@@H](Cc2ccc(-c3ccno3)cc2)C(=O)O)CCCC1 (stereo in doubt) [3-(4-Isoxazole-5-yl-phenyl)-2-{[1-(2-mercapto4-methyl-pentanoylamino)-cyclopentanecarbonyl]-amino}-propionic acid] | 104 to 110 |
| CC(C)[C@H](S)C(=O)NC1(C(=O)N[C@@H](Cc2ccc(-c3ccccc3F)cc2)C(=O)O)CCCC1 (stereo in doubt) [3-(2′-Fluoro-biphenyl-4-yl)-2-{[1-(2-mercapto-3-methyl-butanoylamino)-cyclopentanecarbonyl]-amino}-propionic acid] | 171 to 173 |
| CC(C)[C@H](S)C(=O)NC1(C(=O)N[C@@H](Cc2cccc3c2CCCC3)C(=O)O)CCCC1 (stereo in doubt) [2-{[1-(2-Mercapto-3-methylbutanoylamino)-cyclopentanecarbonyl]-amino}-3-(5,6,7,8-tetrahydro-naphthalen-1-yl)-propionic acid] | 158 to 164 |

Further lines, results first:

| melting point [°C] | SMILES |
| --- | --- |
| 115 to 120 | CC(C)[C@H](S)C(=O)NC1(C(=O)N[C@@H](Cc2ccc(-c3ccccc3)cc2)C(=O)O)CCc2ccccc21 (stereo in doubt) [3-Biphenyl-4-yl-2-{[1-(2-mercapto-3-methyl-butyrylamino)-indane-1-carbonyl]-amino}-propionic acid] |
| 190 to 192 | O=C(NC1(C(=O)N[C@@H](Cc2ccc(-c3ccsc3)cc2)C(=O)O)CCCC1)C(S)Cc1ccccc1 (stereo in doubt) [2-{[1-(2-Mercapto-3-phenyl-propionylamino)-cyclopentanecarbonyl]-amino}-3-[4-(thiophen-3-yl)-phenyl]-propionic acid] |
| 187 to 189 | CSc1ccc(-c2ccc(C[C@H](NC(=O)C3(NC(=O)[C@@H](S)CC(C)C)CCCC3)C(=O)O)cc2)cc1 (stereo in doubt) [2-{[1-(2-mercapto4-methyl-pentanoylamino)-cyclopentanecarbonyl]-amino}-3-(4′-methylthio-biphenyl-4-yl)-propionic acid] |
| 166 to 168 | O=C(O)[C@H](Cc1ccc(-c2ccccc2)cc1)NC(=O)C1(NC(=O)[C@@H](S)Cc2ccc3ccccc3c2)CCCC1 (stereo in doubt) [3-Biphenyl-4-yl-2-{[1-(2-mercapto-3-naphthalen-2-yl-propionylamino)-cyclopentanecarbonyl]-amino}-propionic acid] |
| 222 to 225 | O=C(O)[C@H](Cc1ccc(-c2ccc(C(F)(F)F)cc2)cc1)NC(=O)C1(NC(=O)[C@@H](S)Cc2ccccc2)CCCC1 (stereo in doubt) [2-{[1-(2-Mercapto-3-phenyl-propionylamino)-cyclopentanecarbonyl]-amino}-3-(4′-trifluoromethyl-biphenyl-4-yl)-propionic acid] |
| 172 to 175 | O=C(NC1(C(=O)NC(Cc2ccc(C3CCCCC3)cc2)C(=O)O)CCCC1)C(S)Cc1ccccc1 (stereo not drawn) [3-(4-Cyclohexyl-phenyl)-2-{[1-(2-mercapto-3-phenyl-propionylamino)-cyclopentanecarbonyl]-amino}-propionic acid] |
| 125 to 128 | CC(C)C[C@H](S)C(=O)NC1(C(=O)N[C@@H](Cc2ccc(-c3cccc(F)c3)cc2)C(=O)O)CCCC1 (stereo in doubt) [3-(3′-Fluoro-biphenyl-4-yl)-2-{[1-(2-mercapto-4-methyl-pentanoylamino)-cyclopentanecarbonyl]-amino}-propionic acid] |
| 187 to 189 | O=C(O)[C@H](Cc1ccc(-c2ccccc2)cc1)NC(=O)C1(NC(=O)[C@@H](S)Cc2ccc(-c3ccccc3)cc2)CCCC1 |
| 215 to 217 | CC(C)C[C@H](S)C(=O)NC1(C(=O)NC(Cc2ccc(-c3ccccc3O)cc2)C(=O)O)CCCC1 (stereo in doubt) [3-(2′-Hydroxy-biphenyl-4-yl)-2-{[1-(2-mercapto-4-methyl-pentanoylamino)-cyclopentanecarbonyl]-amino}-propionic acid] |
